Results from patent US7795305B2, “CDDO-compounds and combination therapies thereof” (Board of Regents, The University of Texas System, priority 2000, dated 2010).

Columns and labels:
PPARγ LBD = biological target: T1, PPARγ LBD (Homo sapiens, UniProt P37231); experiment: Scintillation proximity assay (SPA), competition binding; conditions: read-out: Ki, competition with [3H]-rosiglitazone for binding to PPARγ LBD
T1 construct: bacterially expressed PPARγ LBD; made in house
From the text: PPARγ, a member of a family of nuclear receptors, induces differentiation and growth arrest in preadipocyte cells and can mediate inflammatory processes.

NB4 cells = experiment: Cell surface Fas/CD95 expression by flow cytometry; format: cell-based, human; conditions: 0.5 μM, 48 hours (24.8 in DMSO-treated cells)
Protocol: Immunophenotyping. The PE-conjugated anti-CD11b, FITC-conjugated anti-CD14 monoclonal antibody (mAb) (Becton Dickinson) and PE-conjugated anti-CD95 mAb (PharMingen) were used at a 1/10 dilution. The percentage of positive cells was calculated by subtracting the percentage of cells with a fluorescence intensity greater than the set marker using the isotype control (background) from the percentage of cells with a fluorescence intensity greater than the same marker using the specific antibody.
Mechanisms of CDDO-induced apoptosis in leukemia cell lines and in primary AML samples were also determined. The involvement of the death receptor/Fas pathway was studied in NB4 cells. Treatment with 0.5 μM CDDO induced cell surface Fas/CD95 expression at 48 hours (MFI 34.8 vs 24.8 in DMSO-treated cells and 26 in untreated control). At this concentration, 22.3% of cells were annexin V positive compared with 11.4% in DMSO-controls. At 1 μM, 56.3% of cells were apoptotic. Similarly, 1 μM CDDO induced Fas expression in 7/12 AML CD34+ cells (MFI, 22.3±3.5 in DMSO-controls, 40±4.3 in CDDO-treated CD34+ cells, p<0.01).

U937 cells = experiment: cells; format: cell-based, human
Protocol: Suspension culture of leukemic cells.
CDDO. The effect of CDDO on the survival of HL-60 and U937 leukemia cell lines is depicted in FIG. 1. A time- and dose-dependent decrease of HL-60 cells: at 48 hours, 10^−8 M, at 72 and 96 hours, 10^−9 M of CDDO reduced cell numbers by 50%. Viability of U937 cells was inhibited at 107 to 1018 at 48 hours. DNA fragmentation was measured to confirm that the cell death induced by CDDO was due to apoptosis on a sub G1 cell population by DNA/RNA flow cytometry (FIG. 2). The percentage of proliferating cells were analyzed by FCM.

[1] = test system: RXR-expressing HL-60 cells; experiment: Acetylation of nuclear histones, Western blot; format: cell-based, human; conditions: alone or with RXR-specific ligand LG-100268
From the text: PPARγ must form a heterodimer with RXR to bind DNA and activate transcription (Nolte et al., 1998). RXR-specific ligands markedly induce the binding of the co-activator SRC-1 to PPARγ-RXR heterodimers ([…] et al., 1998), and assembly of this complex results in a large increase in transcriptional activity. […] One method to increase the effects of PPARγ ligands contemplated herein is by combination with ligands specific for RXR. […] TSA, the histone deacetylase inhibitor, served as a positive control. Combination of the PPARγ ligand CDDO with TSA synergistically induce differentiation in HL-60 cells and the present inventors contemplate that this is a result of transcriptional activation of target genes via histone acetylation.

[2] = test system: Bcl-2 mRNA in HL-60 cells; experiment: Bcl-2 mRNA by quantitative TaqMan PCR; format: cell-based, human; conditions: 72 hours
Protocol: (§1) The effect of CDDO on the Bcl-2 mRNA expression was analyzed utilizing quantitative TaqMan PCR. In HL-60 cells, Bcl-2 mRNA decreased at 24 hrs and decreased further (>than 10-fold) at 72 hours; in NB4 cells, a small decrease of Bcl-2 mRNA (2-fold) was observed only at 72 hrs (FIG. 9).

Bcl-2 mRNA in NB4 cells = experiment: Bcl-2 mRNA by quantitative TaqMan PCR; format: cell-based, human; conditions: 72 hrs
Protocol: as §1

[3] = test system: ERK immunoprecipitated from K562 cells; experiment: In vitro ERK (MAPK kinase) assay, MBP phosphorylation; format: biochemical; conditions: 0.1, 1, and 10 μM
Protocol: In vitro ERK assay. The effect of CDDO or CDDO-Me was determined using an in vitro MAPK kinase assay kit from Upstate Biotechnology (Lake Placid, N.Y.) and ERK1/2 antibody from Santa Cruz Biotechnology (Santa Cruz, Calif.). For each sample, ERK 1/2 was immunoprecipitated from 2×10^7 K562 or 1×10^7 HL60 cells using a specific anti-ERK 1/2 antibody and Protein A agarose (Life Technologies, Rockville, Md.). The ERK-containing agarose pellet was resuspended in Assay Buffer containing an inhibitor cocktail (PKC inhibitor peptide, PKA inhibitor peptide, and Compound R24571) to block possible contaminating non-ERK kinases. Where appropriate, varying concentrations (0.1, 1, and 10 μM) of CDDO or CDDO-Me was added. Dephosphorylated myelin basic protein (MBP; 25 μg) was used as substrate. Phosphorylation of MBP was observed by using an anti-phospho-MBP antibody. […] The amount of ERK2 immunoprecipitated from each sample was determined by using anti-ERK2 antibody.
To determine specific effects of CDDO-Me on ERK activity the inventors used an in vitro MAPK kinase assay kit. ERK was immunoprecipitated from K562 cells since these cells contain the Bcr-Abl kinase and activated ERK present in these cells under basal conditions.

U937 S70E Bcl-2 cells = experiment: Viability of Bcl-2 mutant transfectants; format: cell-based, human; conditions: 0.1 μM
From the text: (§2) Cell lines. HL-60, KG-1, U937, and Jurkat cell lines were obtained from the American Type Culture Collection (Rockville, Md.). NB4 cells were kindly provided by Dr. M. Lanotte. HL-60-doxorubicin-resistant cells (HL-60-DOX) were also used. U937/Bcl-2 and its appropriate vector controls (U937/pCEP) were provided by Dr. S. Grant. U937 cells were transfected with WT, S70A, or S70E cDNA containing cytomegalovirus plasmids by electroporation (200 V, 975 μF capacitance) and selected and maintained in the medium plus 500 μg/mL G418 (Gibco BRL, Gaithersburg, Md.)
(§3) The effect of CDDO-Me on Bcl-2 phosphorylation was further investigated by performing metabolic labeling studies with ^32P-orthophosphoric acid. […] To further investigate mechanisms of inhibition of Bcl-2 phosphorylation that could may a role in CDDO-Me-induced cell death, the inventors selected U937 cells that were stably transfected with a serine 70→alanine, Bcl-2 mutant (S70A).

U937/S70A Bcl-2 cells = experiment: Viability of Bcl-2 mutant transfectants; format: cell-based, human; conditions: 0.1 μM
From the text: as §2, §3

T1 sequence (P37231 238-503 limits assumed): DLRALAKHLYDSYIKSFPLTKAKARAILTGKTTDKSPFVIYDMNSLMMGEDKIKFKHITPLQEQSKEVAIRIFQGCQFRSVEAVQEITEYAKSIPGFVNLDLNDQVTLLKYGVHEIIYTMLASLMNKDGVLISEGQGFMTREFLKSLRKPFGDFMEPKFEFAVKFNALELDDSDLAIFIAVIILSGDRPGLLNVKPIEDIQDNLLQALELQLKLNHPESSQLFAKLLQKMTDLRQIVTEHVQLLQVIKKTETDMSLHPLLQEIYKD

| SMILES | Ki (PPARγ LBD) [nM] | cell surface Fas/CD95 expression, MFI (NB4 cells) | concentration at which viability of U937 cells was inhibited (U937 cells; 48 hours) | viability at 1 µM (U937 cells; Homo sapiens, U-937, 48 h, read-out: cells remaining viable) [%] | viability at 2 µM (U937 cells; Homo sapiens, U-937, read-out: viable cells) [%] | acetylation of histones H3 and H4 [1] | decrease of Bcl-2 mRNA [2] [fold] | decrease of Bcl-2 mRNA (Bcl-2 mRNA in NB4 cells) [fold] | MBP phosphorylation by ERK [3] | viable cells (U937 S70E Bcl-2 cells) [%] | decrease in viability (U937/S70A Bcl-2 cells) [%] |
| --- | --- | --- | --- | --- | --- | --- | --- | --- | --- | --- | --- |
| CC1(C)CCC2(C(=O)O)CCC3(C)C(C(=O)C=C4C5(C)C=C(C#N)C(=O)C(C)(C)C5CCC43C)C2C1 (centres unmarked) [CDDO, 2-cyano-3,12-dioxoolen-1,9-dien-28-oic acid] | 12 | 34.8 | 107 to 1018 | 44.7 | 30.2 | induction of acetylation of histones H3 and H4 | > 10 | 2 |  |  |  |
| COC(=O)[C@]12CCC(C)(C)C[C@H]1[C@H]1C(=O)C=C3[C@@]4(C)C=C(C#N)C(=O)C(C)(C)[C@@H]4CC[C@@]3(C)[C@]1(C)CC2 [CDDO-Me] |  |  |  |  |  |  |  |  | inhibited MBP phosphorylation in a dose-dependent manner | 75 | 60 |
